For one data set, the target named is T1, Ribonuclease T1 (Aspergillus oryzae, UniProt P00651).
T1 sequence (P00651 27-130): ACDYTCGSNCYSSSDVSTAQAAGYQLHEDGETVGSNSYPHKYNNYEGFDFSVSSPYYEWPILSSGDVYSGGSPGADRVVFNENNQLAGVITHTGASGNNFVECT
As to the kind of experiment: Visual detection ribonuclease assay, cleavage of Substrate ODN by RNase T1. It counts as biochemical. Particulars: visual inspection, UV excitation, Substrate 500 nM, 37° C. 60 minutes. Also on record: key to Sensitivity of Substrate ODN to Ribonuclease T1, relative signal intensity: +++ = maximum intensity; ++ = moderate intensity; + = faint but above background; − = negative (identical to background). On the procedure:
(§1) Nuclease assays were conducted using the method of the invention with both visual and fluorometric detection methods. Substrates were individually mixed in 1× Assay Buffer at a concentration of 50 nM (50 pmoles oligonucleotide in 1 ml volume) for fluorometric detection or at a concentration of 500 nM (50 pmoles of oligonucleotide in 100 ul volume) for visual detection. Test nucleases were added to respective Assay Mixes beginning at 1 ul stock reagent and proceeding with a 1:10 serial dilution until undetectable. Reaction mixes were incubated at 37° C. for 60 minutes. Fluorometric detection was performed as outlined in Example 2. Visual detection was performed as outlined in Example 1.
Table 7: Sensitivity of different Substrate ODNs to Ribonuclease T1. A series of Substrate ODNs were synthesized and tested for sensitivity to RNase T1 degradation. Stock enzyme was serial diluted to achieve final concentrations of 0.001 units/ml, 0.0001 units/ml, and 0.00001 units/ml as indicated. Reactions were examined for fluorescence emission by visual inspection using an ultraviolet (UV) light source for excitation. Results were scored as +++, ++, +, or − based on relative signal intensity.
(§2) It is commonly accepted that fluorometry provides for high sensitivity. To be useful, the visual method must also offer high sensitivity. Assays were conducted using the method of the invention with visual detection. Substrate SEQ ID NO:30 was mixed in 1× Assay Buffer at a concentration of 500 nM (50 pmoles ODN in 100 ul volume) in thin-walled, UV transparent tubes. […] Dilutions of stock RNase A, RNase 1, and RNase T1 were made in water. Undiluted and diluted nuclease (1 ul) was added to respective 100 ul Assay Mixes resulting in final dilution factors of 10^−2, 10^−3, 10^−4, 10^−5, 10^−6, and 10^−7. Assays were incubated at room temperature for 10 minutes and visually examined for fluorescence emission with UV excitation. […] The experiment took about 30 minutes to perform, including 15 minutes to set-up serial dilutions, 10 minutes incubation, and 5 minutes to visualize and photograph. Thus the method of the invention allows for a rapid, simple, and convenient visual assay for the presence of ribonuclease activity.

A further data set addresses T2, Ribonuclease A (Bos taurus, UniProt P61823).
T2 sequence (P61823 27-150): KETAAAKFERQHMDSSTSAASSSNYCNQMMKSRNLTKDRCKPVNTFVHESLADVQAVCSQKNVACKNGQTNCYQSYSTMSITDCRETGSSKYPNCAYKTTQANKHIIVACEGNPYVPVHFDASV
Nature of the data set: Visual detection ribonuclease assay, cleavage of Substrate ODN by RNase A. The data set is classed as biochemical, mammalian. Also on record: key to Sensitivity of Substrate ODN to Ribonuclease A, relative signal intensity: +++ = maximum intensity; ++ = moderate intensity; + = faint but above background; − = negative (identical to background). Particulars: visual inspection, UV excitation, Substrate 500 nM, 37° C. 60 minutes. On the procedure: Nuclease assays were conducted using the methods of the invention. SEQ ID NO:2 and SEQ ID NO:30 oligonucleotides were individually mixed in 1× Assay Buffer at a concentration of 500 nM (50 pmoles ODN in 100 ul volume) in thin-walled, UV transparent microtubes. RNase A (1 ul, diluted to 0;1 ug/ul) was added to the respective Assay Mixes. […] Assays were set up directly in microtubes as follows:
Assay Mixes were incubated at room temperature for 10 minutes. Assays were visually examined for fluorescence emission directly in the assay tubes without further manipulation. Tubes were suspended above an ultraviolet light source, visually inspected, and photographed using a digital camera. […] The “positive” and “control” reactions appeared markedly different and were easily distinguished. […] The “positive” and “control” reactions were not markedly different to visual inspection.
as §1
Table 6: Sensitivity of different Substrate ODNs to Ribonuclease A. A series of Substrate ODNs were synthesized and tested for sensitivity to RNase A degradation. Stock enzyme was serial diluted to achieve final concentrations of 1 ng/ml, 100 pg/ml, and 10 pg/ml as indicated. Reactions were examined for fluorescence emission by visual inspection using an ultraviolet (UV) light source for excitation. Results were scored as +++, ++, +, or − based on relative signal intensity.
as §2

This note sets out measurements from US7276337B2, “Compositions and methods for visual ribonuclease detection assays” (Integrated DNA Technologies, Inc., priority 2000, dated 2007).

For “5′ Fluorescein-AAaAA-Dabcyl 3′ (NAAAAAN; 5' fluorescein and 3' Dabcyl labels, nucleotide chemistry not given here) [SEQ ID NO:6]”, the “Sensitivity of Substrate ODN to Ribonuclease T1, relative signal intensity” value with Ribonuclease T1 (RNase T1 10^−3 units/ml), with Ribonuclease T1 (RNase T1 10^−4 units/ml) and with Ribonuclease T1 (RNase T1 10^−5 units/ml) was “−” throughout. The “Sensitivity of Substrate ODN to Ribonuclease A, relative signal intensity” value with Ribonuclease A (RNase A 10 pg/ml), with Ribonuclease A (RNase A 100 pg/ml) and with Ribonuclease A (RNase A 1 ng/ml) was “−” in each case.

Turning to “5′ Fluorescein-AAcAA-Dabcyl 3′ (NAACAAN; 5' fluorescein and 3' Dabcyl labels, nucleotide chemistry not given here) [SEQ ID NO:5]”, the “Sensitivity of Substrate ODN to Ribonuclease T1, relative signal intensity” value in the data set with Ribonuclease T1 (RNase T1 10^−3 units/ml), with Ribonuclease T1 (RNase T1 10^−4 units/ml) and with Ribonuclease T1 (RNase T1 10^−5 units/ml) was “−” in each case. The “Sensitivity of Substrate ODN to Ribonuclease A, relative signal intensity” value with Ribonuclease A (RNase A 10 pg/ml) is given as “−”; with Ribonuclease A (RNase A 100 pg/ml), “+”; with Ribonuclease A (RNase A 1 ng/ml) it was “++”.

On to “5′ Fluorescein-AAgAA-Dabcyl 3′ (NAAGAAN; 5' fluorescein and 3' Dabcyl labels, nucleotide chemistry not given here) [SEQ ID NO:4]”, for which the results for the “Sensitivity of Substrate ODN to Ribonuclease T1, relative signal intensity” value with Ribonuclease T1 (RNase T1 10^−3 units/ml), with Ribonuclease T1 (RNase T1 10^−4 units/ml) and in the data set with Ribonuclease T1 (RNase T1 10^−5 units/ml) were “+”, “−” and “−”, respectively. Besides, the “Sensitivity of Substrate ODN to Ribonuclease A, relative signal intensity” value with Ribonuclease A (RNase A 10 pg/ml), in the data set with Ribonuclease A (RNase A 100 pg/ml) and with Ribonuclease A (RNase A 1 ng/ml) was “−” in each case.

For the substance “5′ Fluorescein-AacAA-Dabcyl 3′ (NAACAAN; 5' fluorescein and 3' Dabcyl labels, nucleotide chemistry not given here) [SEQ ID NO:8]”, the “Sensitivity of Substrate ODN to Ribonuclease T1, relative signal intensity” value with Ribonuclease T1 (RNase T1 10^−3 units/ml), with Ribonuclease T1 (RNase T1 10^−4 units/ml) and with Ribonuclease T1 (RNase T1 10^−5 units/ml) was “−” in each case. Further, the results for the “Sensitivity of Substrate ODN to Ribonuclease A, relative signal intensity” value with Ribonuclease A (RNase A 10 pg/ml), with Ribonuclease A (RNase A 100 pg/ml) and in the data set with Ribonuclease A (RNase A 1 ng/ml) were “+”, “+++” and “+++”, respectively.

Take “5′ Fluorescein-AaggucA-QSY-7 3′ (NAAGGUCAN; 5' fluorescein and 3' QSY-7 labels, nucleotide chemistry not given here) [SEQ ID NO:28]”: the “Sensitivity of Substrate ODN to Ribonuclease T1, relative signal intensity” value is “+++” with Ribonuclease T1 (RNase T1 10^−3 units/ml), “+++” in the data set with Ribonuclease T1 (RNase T1 10^−4 units/ml) and “++” in the data set with Ribonuclease T1 (RNase T1 10^−5 units/ml). The “Sensitivity of Substrate ODN to Ribonuclease A, relative signal intensity” value is “+” with Ribonuclease A (RNase A 10 pg/ml), “++” in the data set with Ribonuclease A (RNase A 100 pg/ml) and “+++” with Ribonuclease A (RNase A 1 ng/ml).

Take “5′ Fluorescein-AagucA-Dabcyl 3′ (NAAGUCAN; 5' fluorescein and 3' Dabcyl labels, nucleotide chemistry not given here) [SEQ ID NO:24]”: the “Sensitivity of Substrate ODN to Ribonuclease T1, relative signal intensity” value with Ribonuclease T1 (RNase T1 10^−3 units/ml) is recorded as “++”; in the data set with Ribonuclease T1 (RNase T1 10^−4 units/ml) it was “+”; with Ribonuclease T1 (RNase T1 10^−5 units/ml), “−”. Also, the “Sensitivity of Substrate ODN to Ribonuclease A, relative signal intensity” value with Ribonuclease A (RNase A 10 pg/ml) was “−”; in the data set with Ribonuclease A (RNase A 100 pg/ml), “+”; in the data set with Ribonuclease A (RNase A 1 ng/ml), “+++”.

As for “5′ Fluorescein-AagucA-QSY-7 3′ (NAAGUCAN; 5' fluorescein and 3' QSY-7 labels, nucleotide chemistry not given here) [SEQ ID NO:27]”, the “Sensitivity of Substrate ODN to Ribonuclease T1, relative signal intensity” value with Ribonuclease T1 (RNase T1 10^−3 units/ml) is “+++”; with Ribonuclease T1 (RNase T1 10^−4 units/ml) it was “++”; in the data set with Ribonuclease T1 (RNase T1 10^−5 units/ml), “+”. Also, the “Sensitivity of Substrate ODN to Ribonuclease A, relative signal intensity” value in the data set with Ribonuclease A (RNase A 10 pg/ml) is given as “+”; with Ribonuclease A (RNase A 100 pg/ml) it was “++”; with Ribonuclease A (RNase A 1 ng/ml) it was “+++”.

As for “5′ Fluorescein-AaugcA-QSY-7 3′ (NAAUGCAN; 5' fluorescein and 3' QSY-7 labels, nucleotide chemistry not given here) [SEQ ID NO:29]”, the “Sensitivity of Substrate ODN to Ribonuclease T1, relative signal intensity” value in the data set with Ribonuclease T1 (RNase T1 10^−3 units/ml) was “+++”; with Ribonuclease T1 (RNase T1 10^−4 units/ml), “+++”; in the data set with Ribonuclease T1 (RNase T1 10^−5 units/ml), “++”. Also, the “Sensitivity of Substrate ODN to Ribonuclease A, relative signal intensity” value with Ribonuclease A (RNase A 10 pg/ml) is “+”; in the data set with Ribonuclease A (RNase A 100 pg/ml), “+++”; with Ribonuclease A (RNase A 1 ng/ml), “+++”.

On to “5′ Fluorescein-AcgaA-Dabcyl 3′ (NACGAAN; 5' fluorescein and 3' Dabcyl labels, nucleotide chemistry not given here) [SEQ ID NO:12]”, for which the “Sensitivity of Substrate ODN to Ribonuclease T1, relative signal intensity” value with Ribonuclease T1 (RNase T1 10^−3 units/ml) is “+++”; with Ribonuclease T1 (RNase T1 10^−4 units/ml), “++”; with Ribonuclease T1 (RNase T1 10^−5 units/ml), “−”. Moreover, the entries for the “Sensitivity of Substrate ODN to Ribonuclease A, relative signal intensity” value in the data set with Ribonuclease A (RNase A 10 pg/ml), with Ribonuclease A (RNase A 100 pg/ml) and with Ribonuclease A (RNase A 1 ng/ml) were “−”, “−” and “++”, respectively.

For “5′ Fluorescein-AcgcA-Dabcyl 3′ (NACGCAN; 5' fluorescein and 3' Dabcyl labels, nucleotide chemistry not given here) [SEQ ID NO:13]”, the “Sensitivity of Substrate ODN to Ribonuclease T1, relative signal intensity” value with Ribonuclease T1 (RNase T1 10^−3 units/ml) was “+++”; with Ribonuclease T1 (RNase T1 10^−4 units/ml) it was “++”; with Ribonuclease T1 (RNase T1 10^−5 units/ml), “−”. The “Sensitivity of Substrate ODN to Ribonuclease A, relative signal intensity” value with Ribonuclease A (RNase A 10 pg/ml) is reported as “−”; with Ribonuclease A (RNase A 100 pg/ml) it was “+”; in the data set with Ribonuclease A (RNase A 1 ng/ml) it was “++”.

“5′ Fluorescein-AcggA-Dabcyl 3′ (NACGGAN; 5' fluorescein and 3' Dabcyl labels, nucleotide chemistry not given here) [SEQ ID NO:14]”: the “Sensitivity of Substrate ODN to Ribonuclease T1, relative signal intensity” value is “+++” in the data set with Ribonuclease T1 (RNase T1 10^−3 units/ml), “+++” with Ribonuclease T1 (RNase T1 10^−4 units/ml) and “+” with Ribonuclease T1 (RNase T1 10^−5 units/ml). Moreover, the results for the “Sensitivity of Substrate ODN to Ribonuclease A, relative signal intensity” value in the data set with Ribonuclease A (RNase A 10 pg/ml), with Ribonuclease A (RNase A 100 pg/ml) and with Ribonuclease A (RNase A 1 ng/ml) were “−”, “+” and “++”, respectively.
